Data: article PMC6976569, “Structural basis of subtype-selective competitive antagonism for GluN2C/2D-containing NMDA receptors” (Nature Communications, 2020)
Where “and” joins values, the source holds several entries; their conditions need not be identical. Equal entries are not always repeated.

Legend:
[1] = molecular target: GluK2 (Homo sapiens, UniProt Q13002); assay: Glutamate-stimulated Ca2+-influx fluorescence assay in HEK293 cells, GluK2; type: cell-based; conditions: for IC50: HEK293 cells, glutamate-stimulated Ca2+-influx
Chain of GluK2 (Q13002 32-908): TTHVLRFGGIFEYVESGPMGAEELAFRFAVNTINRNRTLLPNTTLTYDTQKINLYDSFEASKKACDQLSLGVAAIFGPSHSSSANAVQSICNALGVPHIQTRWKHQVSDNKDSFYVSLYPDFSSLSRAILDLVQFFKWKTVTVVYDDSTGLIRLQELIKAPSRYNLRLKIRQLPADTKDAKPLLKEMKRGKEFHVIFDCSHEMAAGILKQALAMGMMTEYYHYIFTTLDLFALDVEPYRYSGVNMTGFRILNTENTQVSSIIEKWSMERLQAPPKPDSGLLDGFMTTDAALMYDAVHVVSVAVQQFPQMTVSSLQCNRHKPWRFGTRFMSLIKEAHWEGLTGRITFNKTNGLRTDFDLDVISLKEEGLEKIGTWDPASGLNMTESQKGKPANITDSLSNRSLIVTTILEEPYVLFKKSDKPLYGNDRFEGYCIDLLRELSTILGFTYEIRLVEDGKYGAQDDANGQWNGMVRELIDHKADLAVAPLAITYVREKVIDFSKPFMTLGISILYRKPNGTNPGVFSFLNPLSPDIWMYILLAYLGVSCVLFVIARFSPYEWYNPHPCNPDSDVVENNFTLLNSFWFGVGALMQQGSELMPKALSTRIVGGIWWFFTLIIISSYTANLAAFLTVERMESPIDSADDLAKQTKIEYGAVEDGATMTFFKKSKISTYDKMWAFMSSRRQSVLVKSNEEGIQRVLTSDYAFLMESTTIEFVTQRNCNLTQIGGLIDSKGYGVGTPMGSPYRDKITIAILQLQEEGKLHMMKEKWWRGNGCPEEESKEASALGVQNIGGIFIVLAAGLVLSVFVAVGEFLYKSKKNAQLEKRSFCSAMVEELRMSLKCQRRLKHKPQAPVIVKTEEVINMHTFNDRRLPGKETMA
Method: (§1) HEK293 cell lines stably expressing homomeric glutamate receptors (GluA1, GluK1 and GluK2) were obtained from Eli Lilly and grown in DMEM (ThermoFisher) supplemented with 10% v/v fetal bovine serum (Sigma), 2 mM Glutamax™ (Gibco), 100 U/mL penicillin, 100 µg streptomycin and 250 ng amphotericin B (Sigma) in 5% CO2 at 37 °C. Cells were passaged using TrypLE (Gibco) as required before confluency and periodically treated with selection antibiotics (GluK1, GluK2 hygromycin B, 200 µg/mL; GluA1 geneticin™, 200 µg/mL).
(§2) Calcium influx fluorescence assay
(§3) 100k cells/well were seeded into a 96-well plate precoated with poly-L-lysine and incubated for 12-16 hours until fully confluent. The cell monolayer was washed twice with 100 µL Hanks Balanced Salt Solution supplemented with 5 mM CaCl2 and 20 mM HEPES (sHBSS), then incubated for 2-4 hours with 100 µL working solution of Ca6 dye (Molecular Devices) supplemented with a desensitization blocker (GluK1, GluK2 0.25 mg/mL concanavalin A, Sigma; GluA1 100 µM cyclothiazide, Sigma). The time resolved fluorescence was recorded in a Flexstation 3 instrument (Molecular Devices). For each individual reading, the initial fluorescence of the well was measured for 20 seconds, after which the desired concentration of […]
(§4) response is measured as the peak change in fluorescence upon addition of agonist. The viability of the cells was confirmed by determination of the concentration-response curve to the L-glutamate agonist and a standard antagonist for each plate. Readings of antagonists used the […]
(§5) Fluorescence traces were performed in […]
(§6) triplicate on each plate and Ki values were determined on a plate-by-plate basis. Separate experiments (n) were performed on different passages of cells. […]

[2] = Water solubility (statement); type: physicochemical; conditions: authors' statement in peer review file
[3] = molecular target: human GluK1 (Homo sapiens, UniProt P39086); assay: Glutamate-stimulated Ca2+-influx fluorescence assay in HEK293 cells, GluK1; type: cell-based
Method: Supplementary Figure 5. Effect of antagonist compounds on GluK1.
Averaged dose-response curves (average ± standard error of the mean) for inhibition with a […]
glutamate-stimulated Ca2+-influx assay from 3 or 4 measurements (n). IC50, Ki, and Hill coefficient nH (mean ± standard error of the mean) calculated with the Cheng-Prusoff equation were determined per measurement and are as shown. […]
HEK293 cell lines stably expressing homomeric glutamate receptors (GluA1, GluK1 and GluK2) were obtained from Eli Lilly and grown in DMEM (ThermoFisher) supplemented with 10% v/v fetal bovine serum (Sigma), 2 mM Glutamax™ (Gibco), 100 U/mL penicillin, 100 µg streptomycin and 250 ng amphotericin B (Sigma) in 5% CO2 at 37 °C. […]
as §2
100k cells/well were seeded into a 96-well plate precoated with poly-L-lysine and incubated for 12-16 hours until fully confluent. […] The time resolved fluorescence was recorded in a Flexstation 3 instrument (Molecular Devices). For each individual reading, the initial fluorescence of the well was measured for 20 seconds, after which the desired concentration of […]
response is measured as the peak change in fluorescence upon addition of agonist. […] Readings of antagonists used the […]
as §5
triplicate on each plate and Ki values were determined on a plate-by-plate basis. […]

[4] = molecular target: T1, GluN1-4a/GluN2D NMDARs (Rattus norvegicus, UniProt P35439+Q62645); assay: TEVC electrophysiology on Xenopus laevis oocytes expressing GluN1-4a/GluN2D; type: cell-based; conditions: for Ki: 100 μM glycine, 1 or 3 μM L-glutamate
T1 construct: expressed in transfected cells; host or cells: Xenopus laevis oocytes injected with cRNA
T1 sequence (Q62645 28-1323, other chains not shown): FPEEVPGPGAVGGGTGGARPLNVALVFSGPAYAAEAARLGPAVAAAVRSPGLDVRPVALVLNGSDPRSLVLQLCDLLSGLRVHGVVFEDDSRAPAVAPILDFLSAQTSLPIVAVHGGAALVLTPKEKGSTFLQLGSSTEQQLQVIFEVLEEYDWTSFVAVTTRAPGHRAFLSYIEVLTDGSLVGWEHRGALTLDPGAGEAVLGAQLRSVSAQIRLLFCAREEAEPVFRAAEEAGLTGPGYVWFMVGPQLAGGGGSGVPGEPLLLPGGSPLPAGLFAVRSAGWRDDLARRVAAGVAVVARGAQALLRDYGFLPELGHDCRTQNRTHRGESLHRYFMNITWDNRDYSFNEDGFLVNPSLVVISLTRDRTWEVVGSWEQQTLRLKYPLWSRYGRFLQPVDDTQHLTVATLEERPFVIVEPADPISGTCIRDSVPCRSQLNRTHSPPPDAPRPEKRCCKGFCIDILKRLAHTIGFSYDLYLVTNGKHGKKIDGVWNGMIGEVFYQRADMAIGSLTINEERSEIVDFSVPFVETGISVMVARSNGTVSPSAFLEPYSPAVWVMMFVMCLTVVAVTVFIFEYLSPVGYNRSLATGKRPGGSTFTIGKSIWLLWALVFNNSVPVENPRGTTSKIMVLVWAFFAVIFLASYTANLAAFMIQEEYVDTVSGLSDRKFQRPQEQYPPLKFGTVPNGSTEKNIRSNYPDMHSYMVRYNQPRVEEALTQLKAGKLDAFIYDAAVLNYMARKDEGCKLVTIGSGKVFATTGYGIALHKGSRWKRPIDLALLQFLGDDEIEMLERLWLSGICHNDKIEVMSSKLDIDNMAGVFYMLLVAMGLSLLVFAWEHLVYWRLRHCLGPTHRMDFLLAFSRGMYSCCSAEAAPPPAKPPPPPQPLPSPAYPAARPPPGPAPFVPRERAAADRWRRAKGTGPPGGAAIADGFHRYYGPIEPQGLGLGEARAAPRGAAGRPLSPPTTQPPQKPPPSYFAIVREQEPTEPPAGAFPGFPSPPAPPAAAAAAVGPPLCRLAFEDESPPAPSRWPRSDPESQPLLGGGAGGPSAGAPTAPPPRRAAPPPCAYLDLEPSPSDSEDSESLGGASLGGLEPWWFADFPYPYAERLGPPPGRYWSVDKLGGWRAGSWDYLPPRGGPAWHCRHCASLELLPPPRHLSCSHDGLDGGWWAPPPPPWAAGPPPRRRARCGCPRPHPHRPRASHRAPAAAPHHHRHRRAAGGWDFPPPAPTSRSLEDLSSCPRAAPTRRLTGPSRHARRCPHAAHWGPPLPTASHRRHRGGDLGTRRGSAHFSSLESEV
Source text: (§7) The chemical definition of UBP791 used in this study is a cis-racemic mixture of (2S,3R)- and (2R,3S)-isomers.
(§8) Plasmids (pSP or pCI_NEO) harboring rat GluN1 or GluN2 full-length subunits were linearized by restriction digestion and transcribed according to the manufacturer’s instructions (mMESSAGE mMachine SP6 or T7 kit, ThermoFisher Scientific). Recombinant rat GluN1-4a and GluN2 were expressed by co-injecting cRNA at a 1:2 (w/w) ratio into defolliculated X. laevis oocytes (amounts varied from 0.05–25 ng per oocyte). Two-electrode voltage-clamp recordings were performed 1–3 days after injection using agarose-tipped microelectrodes (0.4–1.2 MΩ) filled with 3 M KCl at a holding potential of −60 mV. The bath solution contained 5 mM HEPES, 100 mM NaCl, 0.3 mM BaCl2, 10 mM Tricine, at pH 7.4 (adjusted with KOH). […] For the statistical evaluation, we implemented pairwise F-tests to test variances, and then performed the Student t test with equal or unequal variances as determined previously, and accounted for multiple testing with the Bonferroni correction.

[5] = molecular target: T2, GluN1-4a/GluN2D NMDARs (Rattus norvegicus, UniProt Q62645); assay: as above; type: cell-based
T2 construct: expressed in transfected cells; host or cells: Xenopus laevis oocytes injected with cRNA
T2 sequence (Q62645 28-1323, other chains not shown): as above
Source text: as §7, §8

[6] = molecular target: T3, GluN1-4a/GluN2A NMDARs (Rattus norvegicus, UniProt P35439+Q00959); assay: TEVC electrophysiology on Xenopus laevis oocytes expressing GluN1-4a/GluN2A; type: cell-based; conditions: for Ki: Cheng–Prusoff from IC50 and L-glutamate EC50, 100 μM glycine, 1 or 3 μM L-glutamate
T3 construct: expressed in transfected cells; host or cells: Xenopus laevis oocytes injected with cRNA
T3 sequence (Q00959 23-1464, other chains not shown): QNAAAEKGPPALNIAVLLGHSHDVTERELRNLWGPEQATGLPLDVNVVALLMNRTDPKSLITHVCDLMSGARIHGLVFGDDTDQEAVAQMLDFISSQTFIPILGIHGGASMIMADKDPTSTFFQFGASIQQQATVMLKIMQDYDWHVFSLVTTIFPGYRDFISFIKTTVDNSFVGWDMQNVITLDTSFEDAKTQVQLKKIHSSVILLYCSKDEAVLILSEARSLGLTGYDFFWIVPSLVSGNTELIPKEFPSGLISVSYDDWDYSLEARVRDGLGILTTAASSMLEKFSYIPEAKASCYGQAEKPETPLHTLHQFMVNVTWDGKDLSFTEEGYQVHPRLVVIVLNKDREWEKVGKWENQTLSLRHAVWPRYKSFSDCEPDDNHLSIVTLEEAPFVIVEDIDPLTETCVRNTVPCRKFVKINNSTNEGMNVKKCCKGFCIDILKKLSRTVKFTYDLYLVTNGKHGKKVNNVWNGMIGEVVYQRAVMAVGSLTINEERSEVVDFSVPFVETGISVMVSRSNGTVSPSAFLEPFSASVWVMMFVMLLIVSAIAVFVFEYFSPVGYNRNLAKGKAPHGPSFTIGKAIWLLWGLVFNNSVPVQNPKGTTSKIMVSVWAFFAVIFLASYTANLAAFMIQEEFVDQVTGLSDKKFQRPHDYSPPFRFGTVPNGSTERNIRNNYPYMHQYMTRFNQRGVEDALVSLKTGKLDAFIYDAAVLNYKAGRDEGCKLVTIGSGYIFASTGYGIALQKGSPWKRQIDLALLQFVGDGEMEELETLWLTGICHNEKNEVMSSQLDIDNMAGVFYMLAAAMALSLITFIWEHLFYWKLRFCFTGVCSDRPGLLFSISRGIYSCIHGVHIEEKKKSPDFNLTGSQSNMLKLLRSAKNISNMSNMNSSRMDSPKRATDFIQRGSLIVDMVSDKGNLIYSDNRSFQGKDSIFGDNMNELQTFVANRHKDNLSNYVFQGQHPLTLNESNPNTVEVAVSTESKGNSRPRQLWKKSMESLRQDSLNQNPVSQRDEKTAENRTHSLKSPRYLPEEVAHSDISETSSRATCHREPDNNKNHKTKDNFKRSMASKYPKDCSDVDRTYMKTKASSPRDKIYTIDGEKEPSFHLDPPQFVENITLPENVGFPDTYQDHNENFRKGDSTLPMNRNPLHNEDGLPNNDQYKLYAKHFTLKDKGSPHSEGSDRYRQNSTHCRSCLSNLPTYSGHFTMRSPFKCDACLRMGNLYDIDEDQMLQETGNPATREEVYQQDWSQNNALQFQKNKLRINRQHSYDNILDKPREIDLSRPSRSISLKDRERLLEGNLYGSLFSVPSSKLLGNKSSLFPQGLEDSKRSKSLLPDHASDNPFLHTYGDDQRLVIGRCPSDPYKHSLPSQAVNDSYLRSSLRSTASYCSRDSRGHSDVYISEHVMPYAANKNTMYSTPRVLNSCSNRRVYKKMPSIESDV
Source text: as §7, §8

[7] = molecular target: T4, GluN1-4a/GluN2A NMDARs (Rattus norvegicus, UniProt Q00959); assay: as above; type: cell-based; conditions: for fold difference of Ki vs. 2D (GluN2A): Ki GluN2A relative to Ki GluN2D (WT)
T4 construct: expressed in transfected cells; host or cells: Xenopus laevis oocytes injected with cRNA
T4 sequence (Q00959 23-1464, other chains not shown): as above
Source text: as §7, §8

[8] = molecular target: T5, GluN1-4a/GluN2C NMDARs (Rattus norvegicus, UniProt P35439+Q00961); assay: TEVC electrophysiology on Xenopus laevis oocytes expressing GluN1-4a/GluN2C; type: cell-based; conditions: Ki, 100 μM glycine, 1 or 3 μM L-glutamate
T5 construct: expressed in transfected cells; host or cells: Xenopus laevis oocytes injected with cRNA
Source text: as §7, §8

[9] = molecular target: GluA1 (Homo sapiens, UniProt P42261); assay: Glutamate-stimulated Ca2+-influx fluorescence assay in HEK293 cells, GluA1; type: cell-based; conditions: for IC50: HEK293 cells, glutamate-stimulated Ca2+-influx
Method: as §1, §2, §3, §4, §5, §6

[10] = normalized response at 30 µM compound
[11] = normalized response at 100 µM compound
[12] = Cheng–Prusoff from IC50 and L-glutamate EC50
[13] = inhibition dose-response, 100 μM glycine, 1 or 3 μM L-glutamate

Q: Which results are given for O=C(O)CCc1ccc2c(ccc3cc(C(=O)N4CCN[C@@H](C(=O)O)[C@H]4C(=O)O)ccc32)c1 (relative stereo) [UBP791, (2S*,3R*)-1-(7-(2-carboxyethyl)phenanthrene-2-carbonyl)piperazine-2,3-dicarboxylic acid]?
A: IC50 [1]: > 100000 nM; Mean Response [1, 10]: 96.1%; Mean Response [1, 11]: 97.8%; water solubility relative to PPDA [2]: more water soluble than PPDA; Ki [3]: ~100000 nM; IC50 [4]: 560 ± 10 nM; Ki [4, 12]: 90 ± 20 nM; Ki ([4]; Cheng–Prusoff): 80 to 90 nM; Hill coefficient (nH) [5, 13]: 1.40 ± 0.02; IC50 [6]: 6310 ± 400 nM; Ki [6]: 4070 nM and ~4000 nM; fold difference of Ki vs. 2D (GluN2A) [7]: ~ 47 fold; Hill coefficient (nH) [7, 13]: 1.19 ± 0.07; GluN2C/2D-selectivity over GluN2A ([7]; ratio of Ki values): 47 fold; Ki [8, 12]: 80 ± 10 nM; Ki ([8]; Cheng–Prusoff): 80 to 90 nM; IC50 [9]: > 100000 nM; Mean Response [9, 10]: 94.1%; Mean Response [9, 11]: 86.0%

Q: For O=C(O)C=Cc1ccc2c(ccc3cc(C(=O)N4CCN[C@@H](C(=O)O)[C@H]4C(=O)O)ccc32)c1 (relative stereo) [UBP1700, (2S*,3R*)-1-(7-(2-carboxyvinyl)phenanthrene-2-carbonyl)piperazine-2,3-dicarboxylic acid], which IC50 [1] is on record?
A: The IC50 was over 100000 nM.

Q: And the “Mean Response” value [1, 10]?
A: The value was 76.5%.

Q: What about the “Mean Response” value [1, 11] of the same molecule?
A: The value was 90.4%.

Q: And the “water solubility relative to PPDA” value [2]?
A: Its value is “more water soluble than PPDA”.

Q: And the Ki [3]?
A: The Ki was about 32000 nM.

Q: What about the Ki ([4]; Cheng–Prusoff) of the same molecule?
A: The Ki was 7 nM and 7 to 9 nM.

Q: What about the “fold higher affinity on GluN2D compared to UBP145 and UBP161” value ([5]; peer review file, authors' response) of the same molecule?
A: Its value is over 140 fold.

Q: What about the Ki [6] of the same molecule?
A: The Ki was 430 ± 40 nM.

Q: And the “fold difference of Ki vs. 2D (GluN2A)” value [7]?
A: The value was ~ 64 fold.

Q: And the “selectivity for GluN2C over GluN2A” value ([7]; ratio of Ki values)?
A: Its value is 50 fold.

Q: What about the Ki ([8]; Cheng–Prusoff) of the same molecule?
A: Its Ki is 7 to 9 nM and 9 nM.

Q: And the IC50 [9]?
A: The IC50 was over 100000 nM.

Q: What about the “Mean Response” value [9, 10] of the same molecule?
A: Its value is 105.1%.

Q: What about the “Mean Response” value [9, 11] of the same molecule?
A: The value was 101.8%.
